This note sets out measurements from patent US12662473B2, “Inhibitors for programmed cell necrosis and preparation method therefor and use thereof” (SHANGHAI INSTITUTE OF ORGANIC CHEMISTRY, CHINESE ACADEMY OF …, priority 2019, dated 2026).

Like-named read-outs stand apart in the source and are kept apart here.

One assay relates to L929 cells. In words: TNF-induced programmed cell necrosis inhibition, Cell Titer-Glo viability. Type of assay: cell-based, mouse. Conditions: Mus musculus, read-out: EC50 inhibitory activity on programmed cell necrosis. The gist of the method: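 EC50 values come from CellTiter-Glo luminescence (cellular ATP), normalised to unstimulated DMSO wells as 100% viability. Mouse L929 fibroblasts had 1 h compound-plus-Smac pretreatment at 37 °C (Smac added as 500 nM solution), followed by 14 h TNFα challenge (added as 500 ng/mL solution).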

For another assay, the system named is FADD−/− Jurkat cells. Described as above. Format: cell-based. Conditions: Homo sapiens, Jurkat. The gist of the method:
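FADD-deficient Jurkat cells (2.5×10^5/mL) were pretreated 1 h at 37 °C with compound plus Smac (50 nM as added), then stimulated with TNFα (50 ng/mL as added) for 14 h at 37 °C, 5% CO2. Viability was measured as ATP by CellTiter-Glo luminescence, with unstimulated DMSO wells as 100%. EC50 values were derived.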

[1] abbreviates: L929, 14 h, L929 cells (mouse), TNFa + SM164.
Where [2] appears, read: 14 h, TNFa + SM164, read-out: EC50 inhibitory activity on programmed cell necrosis.
The mark [3] stands for this setting: TNFa, read-out: EC50 inhibitory activity on programmed cell necrosis.

Broadly, the EC50 is the concentration at which the effect is half-maximal. Take `Cc1ccc(C2CCCN2C(=O)C(C)(C)Oc2ccc(Cl)cn2)cc1` (centres unmarked) [QY-13-42]: the EC50 in the assay on L929 cells (setting [1]) was determined as 0.322 µM; with L929 cells (L929, L929 cells (mouse), TNFa), 0.102 µM; with FADD−/− Jurkat cells (setting [2]), 4.9 µM; in the assay on FADD−/− Jurkat cells (setting [3]), 3.95e-05 µM.

As for `Cc1ccc(C2CCCN2C(=O)C(C)(C)Oc2ccc(C#N)cn2)cc1` (centres unmarked) [QY-13-68], the EC50 in the assay with L929 cells (setting [1]) amounted to 0.00452 µM; in the assay with L929 cells (L929, L929 cells (mouse), TNFa), 0.00206 µM; in the assay with FADD−/− Jurkat cells (setting [2]), 2.42 µM; in the assay with FADD−/− Jurkat cells (setting [3]), 0.027 µM.

In the case of `Cc1ccc(C2CCCN2C(=O)C(C)(C)Oc2ncc(Cl)cn2)cc1` (centres unmarked) [QY-13-70], the EC50 in the assay on L929 cells (setting [1]) is 1.93 µM; in the assay on L929 cells (L929, L929 cells (mouse), TNFa) it was 0.221 µM; in the assay with FADD−/− Jurkat cells (setting [2]) it was > 10 µM; in the assay with FADD−/− Jurkat cells (setting [3]), 0.477 µM.

For `Cc1ccc(C2CCCN2C(=O)C(C)(C)Nc2ncc(Cl)cn2)cc1` (centres unmarked) [QY-13-86], the EC50 with L929 cells (setting [1]) is > 10 µM; with L929 cells (L929, L929 cells (mouse), TNFa), > 10 µM; in the assay on FADD−/− Jurkat cells (setting [2]), > 10 µM; with FADD−/− Jurkat cells (setting [3]), > 10 µM.

Take `Cc1ccc(C2CCCN2C(=O)C(C)(C)C(=O)N2CCC(C)CC2)cc1` (centres unmarked) [QY-14-8]: the EC50 in the assay on L929 cells (setting [1]) is > 10 µM; with L929 cells (L929, L929 cells (mouse), TNFa), > 10 µM; in the assay with FADD−/− Jurkat cells (setting [2]), > 10 µM; in the assay on FADD−/− Jurkat cells (setting [3]) it was > 10 µM.

On to `Cc1ccc(C2CCCN2C(=O)C(C)(C)C(=O)N2CCN(C)CC2)cc1` (centres unmarked) [QY-14-9], for which the EC50 in the assay on L929 cells (setting [1]) was > 10 µM; in the assay on L929 cells (L929, L929 cells (mouse), TNFa), > 10 µM; with FADD−/− Jurkat cells (setting [2]), > 10 µM; in the assay with FADD−/− Jurkat cells (setting [3]) it was > 10 µM.

As to `Cc1ccc(C2CCCN2C(=O)C(C)(C)Oc2cccc(C(N)=O)c2)cc1` (centres unmarked) [QY-14-17], the EC50 in the assay on L929 cells (setting [1]) was > 10 µM; with L929 cells (L929, L929 cells (mouse), TNFa), > 10 µM; in the assay with FADD−/− Jurkat cells (setting [2]), > 10 µM; in the assay with FADD−/− Jurkat cells (setting [3]) it was > 10 µM.

For the compound `Cc1ccc(C2CCCN2C(=O)C(C)(C)Oc2cccc(C#N)c2)cc1` (centres unmarked) [QY-14-24], the EC50 with L929 cells (setting [1]) was found to be 0.066 µM; in the assay with L929 cells (L929, L929 cells (mouse), TNFa), 0.0154 µM; in the assay with FADD−/− Jurkat cells (setting [2]), 0.939 µM; with FADD−/− Jurkat cells (setting [3]), 0.022 µM.

Take `CNC(=O)c1cccc(OC(C)(C)C(=O)N2CCCC2c2ccc(C)cc2)c1` (centres unmarked) [QY-14-25]: the EC50 in the assay on L929 cells (setting [1]) is > 10 µM; with L929 cells (L929, L929 cells (mouse), TNFa), > 10 µM; in the assay with FADD−/− Jurkat cells (setting [2]) it was > 10 µM; with FADD−/− Jurkat cells (setting [3]), > 10 µM.

As to `Cc1ccc(C2CCCN2C(=O)C(C)(C)Oc2cc(C(N)=O)ncn2)cc1` (centres unmarked) [QY-14-27], the EC50 in the assay with L929 cells (setting [1]) was > 10 µM; in the assay on L929 cells (L929, L929 cells (mouse), TNFa), 8.45 µM; in the assay with FADD−/− Jurkat cells (setting [2]), > 10 µM; in the assay on FADD−/− Jurkat cells (setting [3]), > 10 µM.

Regarding `Cc1ccc(C2CCCN2C(=O)C(C)(C)C(=O)N2CCCC2)cc1` (centres unmarked) [QY-14-29], the EC50 was > 10 µM in the assay with L929 cells (setting [1]); > 10 µM in the assay on L929 cells (L929, L929 cells (mouse), TNFa); > 10 µM in the assay on FADD−/− Jurkat cells (setting [2]); > 10 µM with FADD−/− Jurkat cells (setting [3]).

`Cc1ccc(C2CCCN2C(=O)C(C)(C)C(=O)n2cccn2)cc1` (centres unmarked) [QY-14-30]: the EC50 was > 10 µM with L929 cells (setting [1]); 4.89 µM in the assay with L929 cells (L929, L929 cells (mouse), TNFa); > 10 µM with FADD−/− Jurkat cells (setting [2]); > 10 µM with FADD−/− Jurkat cells (setting [3]).

In the case of `Cc1ccc(C2CCCN2C(=O)C(C)(C)C(=O)N2CCNC(=O)C2)cc1` (centres unmarked) [QY-14-31], the EC50 in the assay on L929 cells (setting [1]) was > 10 µM; in the assay with L929 cells (L929, L929 cells (mouse), TNFa) it was > 10 µM; in the assay with FADD−/− Jurkat cells (setting [2]) it was > 10 µM; in the assay on FADD−/− Jurkat cells (setting [3]), > 10 µM.

In the case of `Cc1ccc(C2CCCN2C(=O)C(C)(C)C(=O)N2CCNCC2)cc1` (centres unmarked) [QY-14-33], the EC50 is > 10 µM in the assay with L929 cells (setting [1]); > 10 µM with L929 cells (L929, L929 cells (mouse), TNFa); > 10 µM with FADD−/− Jurkat cells (setting [2]); > 10 µM with FADD−/− Jurkat cells (setting [3]).

As to `Cc1ccc(C2CCCN2C(=O)C(C)(C)Oc2ccc(C(N)=O)cc2)cc1` (centres unmarked) [QY-14-34], the EC50 with L929 cells (setting [1]) was > 10 µM; in the assay with L929 cells (L929, L929 cells (mouse), TNFa), 0.816 µM; in the assay with FADD−/− Jurkat cells (setting [2]), > 10 µM; with FADD−/− Jurkat cells (setting [3]), 2.36 µM.

On to `Cc1ccc(C2CCCN2C(=O)C(C)(C)Oc2cc(C#N)ncn2)cc1` (centres unmarked) [QY-14-35], for which the EC50 in the assay with L929 cells (setting [1]) was > 10 µM; in the assay with L929 cells (L929, L929 cells (mouse), TNFa) it was > 10 µM; with FADD−/− Jurkat cells (setting [2]), > 10 µM; in the assay with FADD−/− Jurkat cells (setting [3]), > 10 µM.

As to `COc1cc(Cl)ccc1OC(C)(C)C(=O)N1N=CCC1c1cncc(F)c1` (centres unmarked) [QY-14-40], the EC50 is > 10 µM in the assay with L929 cells (setting [1]); > 10 µM in the assay on L929 cells (L929, L929 cells (mouse), TNFa); > 10 µM in the assay with FADD−/− Jurkat cells (setting [2]); > 10 µM in the assay on FADD−/− Jurkat cells (setting [3]).

Take `Cc1ccc(C2CCCN2C(=O)C(C)(C)C(=O)N2CCCCC2)cc1` (centres unmarked) [QY-14-44]: the EC50 in the assay with L929 cells (setting [1]) is > 10 µM; in the assay with L929 cells (L929, L929 cells (mouse), TNFa), > 10 µM; in the assay with FADD−/− Jurkat cells (setting [2]) it was > 10 µM; with FADD−/− Jurkat cells (setting [3]), > 10 µM.

As to `Cc1ccc(C2CCCN2C(=O)C(C)(C)Oc2ccc(C#N)c(C#N)c2)cc1` (centres unmarked) [QY-14-59], the EC50 in the assay with L929 cells (setting [1]) is > 10 µM; with L929 cells (L929, L929 cells (mouse), TNFa), 0.467 µM; in the assay on FADD−/− Jurkat cells (setting [2]) it was > 10 µM; in the assay with FADD−/− Jurkat cells (setting [3]), 4.57 µM.

Consider `Cc1ccc(C2CCCN2C(=O)C(C)(C)Oc2ccc(Cl)c(C#N)c2)cc1` (centres unmarked) [QY-14-60], for which the EC50 came out at 0.497 µM in the assay with L929 cells (setting [1]); 0.141 µM with L929 cells (L929, L929 cells (mouse), TNFa); 1.62 µM in the assay with FADD−/− Jurkat cells (setting [2]); 0.283 µM in the assay on FADD−/− Jurkat cells (setting [3]).
